The text below walks through data of patent publication US8557831B2, “Compositions and methods for treatment and prevention of insulin resistance” (University of Florida Research Foundation, Inc., priority 2004, dated 2013).

Assay [1] has as its system Male Sprague-Dawley rats. Nature of the assay: Serum nitrites/nitrates (NOx) by chemiluminescence method in hyperuricemic rats. The class given is in vivo, rat. The procedure: (§1) Male Sprague-Dawley rats were housed in standard conditions and fed normal diets. Hyperuricemia was induced with an uricase inhibitor, oxonic acid (OA; 750 mg/kg/day), by gavage, with control rats receiving vehicle. Allopurinol (AP) was used to block hyperuricemia by placing AP in the drinking water (150 mg/L). Rats were divided into four groups: (1) Control, (2) AP only, (3) OA only, and (4) OA+AP. Systolic blood pressure was measured using a tail-cuff sphygmomanometer. The amount of drinking water consumed and changes in body weight were noted. Rats were sacrificed at one and seven days. Serum was analyzed for uric acid concentration and nitrites/nitrates (NOx) by chemiluminescence method. (Prabhakar S S: Inhibition of mesangial iNOS by reduced extracellular pH is associated with uncoupling of NADPH oxidation. Kidney Int 61:2015-2024, 2002). Statistical analysis between subgroups was performed using ANOVA.

The test system of assay [2] is Male Sprague-Dawley rats. The assay is described as follows: Serum uric acid concentration in oxonic acid-induced hyperuricemia rat model. It counts as in vivo. The procedure: as §1
Assay [3] concerns Male Sprague-Dawley rats. The assay is described as follows: Systolic blood pressure by tail-cuff sphygmomanometer in hyperuricemic rats. The class given is in vivo, rat. The following applies: 7 days, p=NS.

For the molecule `Oc1ncnc2[nH]ncc12` [AP, Allopurinol], the “serum nitrites and nitrates (NOx)” value in the assay with Male Sprague-Dawley rats [1] (OA+AP group, 1 day) is 17.4 ± 0.8 µmol/L; in the assay on Male Sprague-Dawley rats [1] (OA+AP group, 7 days), 25.0 ± 0.8 µmol/L. In addition, the “change in serum NOx concentration” value with Male Sprague-Dawley rats [1] (rats treated with AP alone) is reported as “did not show a significant change”. Further, the serum uric acid in the assay on Male Sprague-Dawley rats [2] (OA+AP group (AP 150 mg/L in drinking water), 7 days) came to 0.3 ± 0.2 mg/dL; in the assay with Male Sprague-Dawley rats [2] (OA+AP group (AP 150 mg/L in drinking water), day 1), 1.52 ± 0.3 mg/dL. Besides, the “change in serum UA concentration” value in the assay on Male Sprague-Dawley rats [2] (rats treated with AP alone) was “did not show a significant change”.

Regarding `O=C(O)c1nc(=O)[nH]c(=O)[nH]1` [OA, oxonic acid], the “serum nitrites and nitrates (NOx)” value in the assay on Male Sprague-Dawley rats [1] (OA only group, 1 day) worked out at 15.6 ± 0.4 µmol/L; with Male Sprague-Dawley rats [1] (OA only group, 7 days) it was 14.6 ± 1.1 µmol/L. In the assay on Male Sprague-Dawley rats [1] (hyperuricemic (OA) rats, at both 1 day and 7 days), the “reduction of serum nitrites and nitrates (NOx) vs. Control” value is given as 40-50%. In addition, the serum uric acid in the assay on Male Sprague-Dawley rats [2] (OA only group, 750 mg/kg/day by gavage, 1 day) is 1.7 ± 0.7 mg/dL; in the assay on Male Sprague-Dawley rats [2] (OA only group, 750 mg/kg/day by gavage, 7 days), 1.8 ± 0.4 mg/dL. The molecule also returned a systolic blood pressure in the assay on Male Sprague-Dawley rats [3] of 178±18 mm Hg.
